Data on 13 molecules can be found in PubChem BioAssay (NCI).

Test systems include MDA-MB-435; SF-295 CNS; UACC-257 melanoma; NCI/ADR-RES ovarian; SF-268 CNS; COLO 205 colon; HCC-2998 colon; KM12 colon; SR leukemia; HCT-116 colon.
What all share (experiment): NCI-60 cell line screen, 48 h

Where “and” joins values, the source holds several entries; their conditions need not be identical. Equal values may be shown once.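 Where inhibition never reached the appropriate level, the endpoint shown equals the highest concentration tested. Otherwise, values were interpolated linearly from a five-concentration, 48-hour dose response in 96-well plates. GI50: concentration for 50% inhibition of growth. Definition used: TGI = concentration required for complete inhibition of growth.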 A value given as a limit tells only on which side of the number the result lay.

Turning to `CC(=O)OCC(=O)O[C@@H]1[C@H]2[C@@H](OC(=O)c3ccccc3)[C@@H](C)C[C@]2(O)[C@H](OC(C)=O)[C@@]2(C)C[C@]1(OC(C)=O)C[C@H]1C(=O)C(C)(C)[C@@H](OC(C)=O)[C@@H]12`, the TGI with MDA-MB-435, in the assay with SF-295 CNS, in the assay with UACC-257 melanoma, with NCI/ADR-RES ovarian, in the assay with SF-268 CNS and in the assay with COLO 205 colon was more than 25 µM in each case. Besides, the TGI in the assay on HCC-2998 colon, in the assay with KM12 colon, in the assay with SR leukemia and in the assay on HCT-116 colon was more than 25 µM throughout.
As to `CCCCCCCCCCCCNC(=O)CCC(NC(=O)c1ccc(N(C)Cc2cnc3nc(N)nc(N)c3n2)cc1)C(=O)NCCCCCCCCCCCC` (stereo not drawn), the TGI in the assay on MDA-MB-435, with SF-295 CNS, in the assay with UACC-257 melanoma, with NCI/ADR-RES ovarian, in the assay on SF-268 CNS and in the assay on COLO 205 colon was more than 100 µM throughout. The TGI in the assay on HCC-2998 colon is more than 100 µM; in the assay on KM12 colon, more than 100 µM; with SR leukemia it was 32.3 µM; in the assay with HCT-116 colon, more than 100 µM.
With `O=C1/C(=C/c2ccncc2)C(n2cccc2)c2c(Br)sc(Br)c21` (stereo not drawn), the TGI in the assay on MDA-MB-435 stood at 4.66 µM; in the assay on SF-295 CNS it was 26.1 µM; in the assay on UACC-257 melanoma, 5.03 µM; in the assay with NCI/ADR-RES ovarian, 51.2 µM; in the assay with SF-268 CNS, 11 µM; in the assay with COLO 205 colon, 28.6 µM. Also, the TGI turned out to be 3.45 µM with HCC-2998 colon, 24.7 µM in the assay on KM12 colon, 9.51 µM in the assay with SR leukemia and 10.4 µM with HCT-116 colon.
On to `C=C(C)[C@H]1CC(=O)/C(C)=C\CC/C(C)=C/CC[C@@]2(C)O[C@@H]2C1`, for which the TGI is 35 µM in the assay on MDA-MB-435; 89.8 µM with SF-295 CNS; more than 100 µM with UACC-257 melanoma; 56 µM in the assay with NCI/ADR-RES ovarian; 61.2 µM with SF-268 CNS; 32 µM in the assay on COLO 205 colon. The TGI was 93.1 µM in the assay on HCC-2998 colon, 44.3 µM with KM12 colon, more than 100 µM with SR leukemia and 32.8 µM in the assay on HCT-116 colon.
Regarding `CCCCN1C(=O)CC2[C@@H]3CCc4cc(OC)ccc4C3CC[C@]2(C)C1=O` (stereo partly drawn), the TGI in the assay with MDA-MB-435, in the assay with SF-295 CNS, in the assay with UACC-257 melanoma, in the assay with NCI/ADR-RES ovarian, in the assay on SF-268 CNS and in the assay with COLO 205 colon was more than 10 µM throughout. Moreover, the TGI in the assay on HCC-2998 colon, with KM12 colon, with SR leukemia and with HCT-116 colon was more than 10 µM throughout.
For `COc1ccc(C2=C(Cl)C(=O)O/C2=C\c2ccc(OC)c(Br)c2)cc1Cl`, the TGI is more than 100 µM in the assay with MDA-MB-435; 35.1 µM in the assay with SF-295 CNS; more than 100 µM with UACC-257 melanoma; 88.6 µM in the assay with NCI/ADR-RES ovarian; 38 µM in the assay on SF-268 CNS; more than 100 µM in the assay with COLO 205 colon. In addition, the TGI was more than 100 µM in the assay on HCC-2998 colon, more than 100 µM in the assay with KM12 colon, more than 100 µM in the assay with SR leukemia and 53.1 µM in the assay with HCT-116 colon.
On to `NCCCCNCCCNC(=O)CNC(=O)CC(O)C(N)CCCC(NC(=O)C(CN)NC(=O)C(O)CNC(=O)CC(N)c1ccc(O)cc1)C(=O)O` (stereo not drawn), for which the TGI in the assay on MDA-MB-435, with SF-295 CNS, with UACC-257 melanoma, in the assay with NCI/ADR-RES ovarian, with SF-268 CNS and with COLO 205 colon was more than 10 µM throughout. In addition, the TGI in the assay on HCC-2998 colon, with KM12 colon, in the assay on SR leukemia and in the assay with HCT-116 colon was more than 10 µM each time.
As to `COc1ccc(C2Oc3c(OC)cc(CCCO)cc3C2CO)cc1OC` (stereo not drawn), the TGI with MDA-MB-435, in the assay on SF-295 CNS, in the assay with UACC-257 melanoma, in the assay with NCI/ADR-RES ovarian, with SF-268 CNS and in the assay on COLO 205 colon was more than 100 µM throughout. Further, the TGI in the assay with HCC-2998 colon is more than 100 µM; in the assay with KM12 colon, more than 100 µM; in the assay with SR leukemia it was 55.5 µM and > 100 µM; with HCT-116 colon it was more than 100 µM. For the same molecule, the GI50 with UACC-257 melanoma is 49.9 µM and 21.9 µM; in the assay on SR leukemia it was 13.4 µM and > 100 µM.
For the molecule `NC(N)=NS(=O)(=O)c1ccc(NC(=O)c2cccc3c(NNc4ccc(S(N)(=O)=O)cc4)c4ccccc4nc23)cc1`, the TGI in the assay with MDA-MB-435, in the assay with SF-295 CNS, in the assay on UACC-257 melanoma, with NCI/ADR-RES ovarian, in the assay on SF-268 CNS and with COLO 205 colon was more than 100 µM throughout. The TGI in the assay with HCC-2998 colon was more than 100 µM; with KM12 colon, more than 100 µM; with SR leukemia it was 82.6 µM; in the assay on HCT-116 colon, more than 100 µM.
Consider `CCOc1ccc(NCC2CC/C(=C\C=C\c3ccccc3)C2=O)cc1` (stereo not drawn), for which the TGI is 30.4 µM in the assay with MDA-MB-435; 79.5 µM in the assay with SF-295 CNS; 38.4 µM with UACC-257 melanoma; more than 75.3 µM in the assay with NCI/ADR-RES ovarian; 24.2 µM with SF-268 CNS; 31.7 µM in the assay with COLO 205 colon. In addition, the TGI in the assay on HCC-2998 colon was more than 72.4 µM; in the assay on KM12 colon, 20.1 µM; in the assay with SR leukemia, more than 33.3 µM; with HCT-116 colon, 20.4 µM.
With `O=c1c(-c2ccccc2)c(SCCN2CCCCCC2)n(-c2ccccc2)c(=S)n1-c1ccccc1`, the TGI in the assay on MDA-MB-435 was more than 100 µM; in the assay on SF-295 CNS, more than 100 µM; in the assay with UACC-257 melanoma, more than 100 µM; in the assay with NCI/ADR-RES ovarian, more than 100 µM; in the assay on COLO 205 colon, more than 100 µM; in the assay on HCC-2998 colon it was 12.9 µM. Moreover, the TGI is more than 100 µM in the assay on KM12 colon and 84.5 µM with SR leukemia.
In the case of `CNC(=S)NNc1ncnc2c1c(-c1ccc(Cl)cc1)cn2-c1ccc(C)cc1`, the TGI in the assay with MDA-MB-435 amounted to 23.6 µM; in the assay with SF-295 CNS, 20 µM; with UACC-257 melanoma, 27 µM; in the assay with NCI/ADR-RES ovarian, 34.4 µM; with SF-268 CNS, 26.8 µM; in the assay on COLO 205 colon it was 29.6 µM. In addition, the TGI in the assay with KM12 colon was 22 µM; with SR leukemia it was more than 100 µM; in the assay with HCT-116 colon it was 17.1 µM.
As for `CC(=O)N(C)c1ccc(Nc2ccnc3ccc4nn(C)nc4c23)cc1`, the TGI in the assay on MDA-MB-435 was more than 100 µM; in the assay with SF-295 CNS, 59 µM; with UACC-257 melanoma, 58.3 µM; in the assay with NCI/ADR-RES ovarian, more than 100 µM; in the assay on SF-268 CNS it was more than 100 µM; with COLO 205 colon it was 45.2 µM. In addition, the TGI in the assay with KM12 colon is 76.2 µM; in the assay on SR leukemia it was 77.1 µM; with HCT-116 colon, 53.1 µM.
